Test results reported in ChEMBL document CHEMBL1145715, “Massetolides A-H, antimycobacterial cyclic depsipeptides produced by two pseudomonads isolated from marine habitats” (J Nat Prod, 1997).
In brackets after ≈: the same amount, converted by molar mass. Activity calls are given as the source filed them. The calls are words filed in the database; no cut-off is given here.

Legend:
Escherichia coli = assay: Antibacterial activity against Escherichia coli by middle-brook 7H10 agar proportion method; assay type: functional, organism-based
Staphylococcus aureus = assay: Antibacterial activity against Staphylococcus aureus by middle-brook 7H10 agar proportion method; assay type: functional, organism-based
[1] = test system: Mycobacterium tuberculosis; assay: Antimycobacterial activity against Mycobacterium tuberculosis by middle-brook 7H10 agar proportion method; assay type: functional
[2] = test system: Mycobacterium avium-intracellulare; assay: Antimycobacterial activity against Mycobacterium avium-intracellulare by middle-brook 7H10 agar proportion method; assay type: functional
Mus musculus = assay: Toxicity in mouse at 10 mg/kg, ip; assay type: organism-based; design: dose 10 mg/kg, route intraperitoneal; conditions: in vivo

Row | SMILES | Activity (Escherichia coli) | Activity (Staphylococcus aureus) | MIC [1] [µg/mL] | MIC [2] [µg/mL] | Activity (Mus musculus)
1 | CCCCCCC[C@H](O)CC(=O)N[C@@H](CC(C)C)C(=O)N[C@H](CCC(=O)O)C(=O)N[C@H]1C(=O)N[C@H]([C@H](C)CC)C(=O)N[C@@H](CC(C)C)C(=O)N[C@H](CO)C(=O)N[C@@H](CC(C)C)C(=O)N[C@H](CO)C(=O)N[C@@H]([C@H](C)CC)C(=O)O[C@@H]1C | inactive | inactive |  |  | 
2 | CCCCCCC[C@H](O)CC(=O)N[C@@H](CC(C)C)C(=O)N[C@H](CCC(=O)O)C(=O)N[C@H]1C(=O)N[C@H]([C@@H](C)CC)C(=O)N[C@@H](CC(C)C)C(=O)N[C@H](CO)C(=O)N[C@@H](CC(C)C)C(=O)N[C@H](CO)C(=O)N[C@@H]([C@@H](C)CC)C(=O)O[C@@H]1C [MASSETOLIDE A] |  |  | 5 (≈ 4.38 µM) | 2.5 (≈ 2.19 µM) | Non-toxic
